This passage reports IC50 results from patent publication US20250170141A1, “MRGPRX2 MODULATORS AND RELATED METHODS OF TREATMENT” (Escient Pharmaceuticals, Inc., priority 2023, published 2025).

Each structure is given as a SMILES string.

The experiment concerns the target T1, human MRGPRX2 (Homo sapiens, UniProt Q96LB1).
T1 construct: expressed in transfected cells; host or cells: CHO cells, stably transfected (G418 and Hygromycin B selection)
T1 sequence (Q96LB1 1-330): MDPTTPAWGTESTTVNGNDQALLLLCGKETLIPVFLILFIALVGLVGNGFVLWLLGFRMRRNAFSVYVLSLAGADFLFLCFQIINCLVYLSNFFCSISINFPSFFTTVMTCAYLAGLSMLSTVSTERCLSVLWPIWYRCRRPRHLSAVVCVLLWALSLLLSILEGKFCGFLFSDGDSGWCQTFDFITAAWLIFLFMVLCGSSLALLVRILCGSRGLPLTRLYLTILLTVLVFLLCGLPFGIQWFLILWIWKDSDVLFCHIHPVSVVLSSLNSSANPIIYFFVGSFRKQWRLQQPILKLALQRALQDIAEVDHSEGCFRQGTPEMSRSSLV
The experiment can be described thus: MRGPRX2 activity: IP-One Gq HTRF assay in CHO cells, antagonism versus 0.3 uM Cortistatin-14. The note with it: versus 0.3 uM Cortistatin-14 agonist, CHO cells expressing human MRGPRX2, read-out: MRGPRX2 Antagonist Activity. The class given is cell-based. The gist of the method: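 CHO cells stably expressing human MRGPRX2 were treated with a 10-point compound curve (30 uM top, 1:3) plus 0.3 μM Cortistatin-14 in LiCl-containing Tris buffer, pH 8. Incubation was 1 h at 37 °C then 1 h at room temperature; IP-1 was detected by HTRF and IC50 came from the HTRF ratio.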
With `O=S1(=O)N=C(NCc2cccc(Cl)c2)Nc2c(Cc3ccccc3Cl)cccc21` [Compound 12-16, 5-(2-chlorobenzyl)-3-((3-chlorobenzyl)amino)-4H-benzo[e][1,2,4]thiadiazine 1,1-dioxide], the IC50 is less than 100 nM.
As for `O=S1(=O)N=C(NCc2ccncc2Cl)Nc2c(Cc3ccccc3Cl)cccc21` [Compound 12-17, 5-(2-chlorobenzyl)-3-(((3-chloropyridin-4-yl)methyl)amino)-4H-benzo[e][1,2,4]thiadiazine 1,1-dioxide], the IC50 was less than 100 nM.
With `O=S1(=O)N=C(NCc2cccnc2Cl)Nc2c(Cc3ccccc3Cl)cccc21` [Compound 12-18, 5-(2-chlorobenzyl)-3-(((2-chloropyridin-3-yl)methyl)amino)-4H-benzo[e][1,2,4]thiadiazine 1,1-dioxide], the IC50 is less than 100 nM.
Consider `Cc1ccccc1CNC1=NS(=O)(=O)c2cccc(Cc3ccccc3Cl)c2N1` [Compound 12-19, 5-(2-chlorobenzyl)-3-((2-methylbenzyl)amino)-4H-benzo[e][1,2,4]thiadiazine 1,1-dioxide], for which the IC50 was less than 100 nM.
Turning to `Cc1cccc(CNC2=NS(=O)(=O)c3cccc(Cc4ccccc4Cl)c3N2)c1` [Compound 12-20, 5-(2-chlorobenzyl)-3-((3-methylbenzyl)amino)-4H-benzo[e][1,2,4]thiadiazine 1,1-dioxide], the IC50 is less than 100 nM.
On to `Cc1cccnc1CNC1=NS(=O)(=O)c2cccc(Cc3ccccc3Cl)c2N1` [Compound 12-21, 5-(2-chlorobenzyl)-3-(((3-methylpyridin-2-yl)methyl)amino)-4H-benzo[e][1,2,4]thiadiazine 1,1-dioxide], for which the IC50 is less than 100 nM.
As to `O=S1(=O)N=C(NCc2cccc(F)c2)Nc2c(Cc3ccccc3Cl)cccc21` [Compound 12-22, 5-(2-chlorobenzyl)-3-((3-fluorobenzyl)amino)-4H-benzo[e][1,2,4]thiadiazine 1,1-dioxide], the IC50 was less than 100 nM.
Take `O=S1(=O)N=C(NCc2ccncc2F)Nc2c(Cc3ccccc3Cl)cccc21` [Compound 12-23, 5-(2-chlorobenzyl)-3-(((3-fluoropyridin-4-yl)methyl)amino)-4H-benzo[e][1,2,4]thiadiazine 1,1-dioxide]: the IC50 is less than 100 nM.
`COc1ccccc1CNC1=NS(=O)(=O)c2cccc(Cc3ccccc3Cl)c2N1` [Compound 12-24, 5-(2-chlorobenzyl)-3-((2-methoxybenzyl)amino)-4H-benzo[e][1,2,4]thiadiazine 1,1-dioxide]: the IC50 is less than 100 nM.
Turning to `COc1cccnc1CNC1=NS(=O)(=O)c2cccc(Cc3ccccc3Cl)c2N1` [Compound 12-25, 5-(2-chlorobenzyl)-3-(((3-methoxypyridin-2-yl)methyl)amino)-4H-benzo[e][1,2,4]thiadiazine 1,1-dioxide], the IC50 is less than 100 nM.
On to `COc1ccncc1CNC1=NS(=O)(=O)c2cccc(Cc3ccccc3Cl)c2N1` [Compound 12-26, 5-(2-chlorobenzyl)-3-(((4-methoxypyridin-3-yl)methyl)amino)-4H-benzo[e][1,2,4]thiadiazine 1,1-dioxide], for which the IC50 lay within 1000 to 2500 nM.
In the case of `O=S1(=O)N=C(NCc2ccccc2C(F)(F)F)Nc2c(Cc3ccccc3Cl)cccc21` [Compound 12-27, 5-(2-chlorobenzyl)-3-((2-(trifluoromethyl)benzyl)amino)-4H-benzo[e][1,2,4]thiadiazine 1,1-dioxide], the IC50 is less than 100 nM.
Under `O=S1(=O)N=C(NCc2cccnc2F)Nc2c(Cc3ccccc3Cl)cccc21` [Compound 12-28, 5-(2-chlorobenzyl)-3-(((2-fluoropyridin-3-yl)methyl)amino)-4H-benzo[e][1,2,4]thiadiazine 1,1-dioxide] stands less than 100 nM; under `O=S1(=O)N=C(NCc2ncccc2C(F)(F)F)Nc2c(Cc3ccccc3Cl)cccc21` [Compound 12-29, 5-(2-chlorobenzyl)-3-(((3-(trifluoromethyl)pyridin-2-yl)methyl)amino)-4H-benzo[e][1,2,4]thiadiazine 1,1-dioxide], less than 100 nM.
On to `O=S1(=O)N=C(NCc2cnccc2C(F)(F)F)Nc2c(Cc3ccccc3Cl)cccc21` [Compound 12-30, 5-(2-chlorobenzyl)-3-(((4-(trifluoromethyl)pyridin-3-yl)methyl)amino)-4H-benzo[e][1,2,4]thiadiazine 1,1-dioxide], for which the IC50 is less than 100 nM.
In the case of `O=S1(=O)N=C(NCc2cccnc2C(F)(F)F)Nc2c(Cc3ccccc3Cl)cccc21` [Compound 12-31, 5-(2-chlorobenzyl)-3-(((2-(trifluoromethyl)pyridin-3-yl)methyl)amino)-4H-benzo[e][1,2,4]thiadiazine 1,1-dioxide], the IC50 was less than 100 nM.
With `O=S1(=O)N=C(NCc2cnccc2Cl)Nc2c(Cc3ccccc3Cl)cccc21` [Compound 12-32, 5-(2-chlorobenzyl)-3-(((4-chloropyridin-3-yl)methyl)amino)-4H-benzo[e][1,2,4]thiadiazine 1,1-dioxide] the figure was less than 100 nM; with `C=C(c1ccccc1F)c1cccc2c1NC(NCc1ncccc1Cl)=NS2(=O)=O` [Compound 13-1, 3-(((3-chloropyridin-2-yl)methyl)amino)-5-(1-(2-fluorophenyl)vinyl)-4H-benzo[e][1,2,4]thiadiazine 1,1-dioxide], less than 100 nM; with `C=C(c1ccccc1F)c1cccc2c1NC(NCc1ncccc1F)=NS2(=O)=O` [Compound 13-2, 5-(1-(2-fluorophenyl)vinyl)-3-(((3-fluoropyridin-2-yl)methyl)amino)-4H-benzo[e][1,2,4]thiadiazine 1,1-dioxide], less than 100 nM.
As for `C=C(c1ccccc1F)c1c(F)ccc2c1NC(NCc1ncccc1F)=NS2(=O)=O` [Compound 13-3, 6-fluoro-5-(1-(2-fluorophenyl)vinyl)-3-(((3-fluoropyridin-2-yl)methyl)amino)-4H-benzo[e][1,2,4]thiadiazine 1,1-dioxide], the IC50 is less than 100 nM.
On to `O=S1(=O)N=C(NCc2ncccc2Cl)Nc2c(/C=C/c3ccccc3F)cccc21` [Compound 14-1, (E)-3-(((3-chloropyridin-2-yl)methyl)amino)-5-(2-fluorostyryl)-4H-benzo[e][1,2,4]thiadiazine 1,1-dioxide], for which the IC50 was less than 100 nM.
As for `O=S1(=O)N=C(NCc2ncccc2F)Nc2c1ccc(F)c2/C=C/c1ccccc1F` [Compound 14-2, (E)-6-fluoro-3-(((3-fluoropyridin-2-yl)methyl)amino)-5-(2-fluorostyryl)-4H-benzo[e][1,2,4]thiadiazine 1,1-dioxide], the IC50 is 100 to 500 nM.
Take `O=S1(=O)N=C(NCc2ncccc2F)Nc2c(/C=C/c3ccccc3F)cccc21` [Compound 14-3, (E)-3-(((3-fluoropyridin-2-yl)methyl)amino)-5-(2-fluorostyryl)-4H-benzo[e][1,2,4]thiadiazine 1,1-dioxide]: the IC50 was less than 100 nM.
With `CC(C)(c1ccccc1F)c1cccc2c1NC(NCc1ncccc1Cl)=NS2(=O)=O` [Compound 15-1, 3-(((3-chloropyridin-2-yl)methyl)amino)-5-(2-(2-fluorophenyl)propan-2-yl)-4H-benzo[e][1,2,4]thiadiazine 1,1-dioxide] the figure was 501 to 1000 nM; with `O=C(c1ccccc1Cl)c1cccc2c1NC(NCc1ncccc1Cl)=NS2(=O)=O` [Compound 16-1, (2-chlorophenyl)(3-(((3-chloropyridin-2-yl)methyl)amino)-1,1-dioxido-4H-benzo[e][1,2,4]thiadiazin-5-yl)methanone], less than 100 nM.
